Assay [1] deals with T1, D1 receptor (Homo sapiens, UniProt P21728).
T1 construct: expressed in transfected cells; host or cells: D1 transfected CHO cell line
The assay is described as follows: D1 Activation Adenylyl Cyclase Assay (cAMP FlashPlate, D1 transfected CHO cell line). The assay is classed as cell-based. To be noted: agonist activity at the D1 receptor, adenylate cyclase assay, D1 transfected CHO cell line; read-out: D1 EC50. On the procedure: D1 Activation Adenylyl Cyclase Assay
Purpose: To measure D1-agonist activity compounds using an Adenylyl Cyclase Activation Flash Plate Assay from NEN.
Buffers: Activation and Detection buffers are provided from NEN: Catalog # SMP004A.
Maintenance of D1 transfected CHO cell line: • 1. Cells are grown in a 150 cc flask in an incubator at 37° C. with 5% CO2 for 2-3 days (4 maximum) until confluent. • 2. Aspirate off old media (Cells adhere to the plastic flask), wash 2× with sterile PBS. • 3. Add ˜5 mL of Trypsin EDTA (enough to cover bottom of the flask) for 5 min. at RT. • 4. Stop digestion with 15 mL of Media (Ham's F12 plus 10% FBS, 1% P/S, 400 μg/mL G418). • Bang flask on counter to release them from the flask. • 5. Add 2 mL of this to 30 mL of Media in a fresh flask. Return to incubator. Preparation of Cells for Assay: • 1. Loosen the cells with 5 mL Vercine (EDTA)/flask for 10 minutes in incubator. • 2. Add 20 mL of Serum-free media/flask. Transfer to 50-mL Falcon tube. • 3. Spin down cells at 1000 RPM for 5 minutes at 4° C. • 4. Aspirate off old media and resuspend in 5 mL of Serum-free media/plate to be done. • 5. Dilute 10 μL 1/10 in 90 μL Trypan Blue solution and count with a hemocytometer. • Count (live cells only) all four areas and average them. • Count X 10^5 equals cells/mL (including accounting for dilution in Trypan). • 6. Dilute to 50,000 cells/50 μL (1,000,000 cells/mL) in Serum-free media. • 7. Put 50 μL/well in Rows 3-12 of a cAMP FlashPlate. • 8. Put in incubator at 37° C. for 2-4 hours, to allow cells to recover and attach. Adenylyl Cyclase Activation Assay: • 1. Prepare the cAMP standards: • Add 130 μL/well of stimulation buffer to each row of a separate 96-well “standard” plate, 2 columns/plate. • Dilute stock cAMP standard 1/5 with stimulation buffer (final concentration is 1000 pmol/mL). Add 130 μL of this to row A. • Make 1/2 serial dilutions by adding 130 μL from each well to the next (A-G), mixing between each. • Final concentrations are: • A: 500, B: 250, C: 125, D: 62.5, E: 31.25, F: 15.6, G: 7.8, H: 0 pmol/mL. • Place 100 μL from each row from 2 columns of the standard plate into columns 1 and 2 of each “reaction” plate. • 2. Prepare the negative and positive control in the “reaction” plate: • Column 3, rows A-D, add 100 μL stimulation buffer (negative control). • Column 3, rows E-H, add 90 μL of stimulation buffer plus 10 μL of 200 μM APO (positive control, […]). (10 μL 10 mM APO, plus 490 μL stim. buffer=1/50 dilution.) • 3. Prepare the agonist compound dilutions in the “compound” plate: • Add 80 μL of stimulation buffer to row A (One column for each compound), and 90 μL of stimulation buffer to rows B—H. • Add 20 μL of 10 mM of each compound to appropriate row A. • Make 1/10 serial dilutions by adding 10 μL from each well to the next (A-H), mixing between each. • 4. […]. Prepare Detection/Stop buffer by adding 90 μL/plate of cAMP-^125I to 10 mL/plate plus 6 mL (for dead volume) of detection buffer. Steps 6-8 performed with the Multi-Mek. • 6. Add 50 μL to each well of the FlashPlate with CHO cells set up earlier. • 7. Incubate at RT for 8 minutes. • 8. Stop reaction by adding 100 μL of detection/stop buffer to each well. • 9. Cover with plastic film and incubate at RT for 16-24 hours (don't wait more than 24 hours). • 10. Count in a Packard Top-Count. Calculations: • 1. Raw signals generated by cAMP standard wells, without cells, are averaged at each cAMP concentration and converted to % B/Bo by dividing the raw signal at each cAMP concentration by the raw signal with no cAMP added. • 2. These values are used to generate a standard curve by plotting cAMP concentration versus % B/Bo. • 3. Raw data for each compound at each concentration is also converted to % B/B. by the same method. • 4. These values are then converted to pmol cAMP/mL using the standard curve. • 5. These cAMP values are then averaged across the three replicates for each compound concentration. • 6. […]

Assay [2] addresses T2, human dopamine D1 receptor (Homo sapiens, UniProt P21728).
T2 construct: A 1.4 Kb Hind III to Xho I fragment was subcloned into the vector pMMLV; expressed in transfected cells; host or cells: CHO cells, clone CHO-D1M#9 (plasmid pHD1MMLV), membranes
The assay is described as follows: [3H]-SCH-23390 binding to cloned human dopamine D1 receptors (CHO cell membranes). As to conditions: competitive binding, [3H]-SCH-23390, cloned human D1 in CHO membranes; read-out: D1 affinity Ki.

SMILES strings stand for the structures. Counter-ions that a name gives are not always drawn.

T2 sequence (P21728 whole entry, the tested form may be a part): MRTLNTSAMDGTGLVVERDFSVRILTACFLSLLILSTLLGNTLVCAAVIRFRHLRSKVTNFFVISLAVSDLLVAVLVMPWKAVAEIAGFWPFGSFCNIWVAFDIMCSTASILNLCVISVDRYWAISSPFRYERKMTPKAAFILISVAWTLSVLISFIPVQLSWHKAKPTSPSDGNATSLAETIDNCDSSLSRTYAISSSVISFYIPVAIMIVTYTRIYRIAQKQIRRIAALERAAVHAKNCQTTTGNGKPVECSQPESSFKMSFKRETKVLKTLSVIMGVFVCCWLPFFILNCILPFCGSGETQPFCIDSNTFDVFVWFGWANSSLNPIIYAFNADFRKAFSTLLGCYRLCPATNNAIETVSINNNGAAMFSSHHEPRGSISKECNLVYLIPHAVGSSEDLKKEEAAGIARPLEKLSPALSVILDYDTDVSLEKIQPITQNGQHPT
T1 sequence (P21728 whole entry): as the sequence (P21728 whole entry, the tested form may be a part) above

On to `Cc1ccc(C(=O)NC(C)CCN2CCC([C@@H]3Cc4c(ccc(C)c4O)[C@H](CN)O3)CC2)cc1` (stereo partly drawn) [Example 15, N-{3-[4-((1R,3S)-1-Aminomethyl-5-hydroxy-6-methyl-isochroman-3-yl)-piperidin-1-yl]-1-methyl-propyl}-4-methyl-benzamide dihydrochloride], for which the EC50 (usually the concentration that produces a half-maximal response) in assay [1] was 0.011 µM. Besides, the Ki (usually the dissociation constant of the complex between target and ligand, obtained from inhibition or displacement) in assay [2] was found to be 0.126 µM.
For the molecule `Cc1ccc2c(c1O)C[C@@H](C1CCN(CCC(C)NC(=O)c3ccc(Br)cc3)CC1)O[C@H]2CN` (stereo partly drawn) [Example 23, N-{3-[4-((1R,3S)-1-Aminomethyl-5-hydroxy-6-methyl-isochroman-3-yl)-piperidin-1-yl]-1-methyl-propyl}-4-bromo-benzamide dihydrochloride], the EC50 in assay [1] is 0.059 µM. Also, the inhibition constant (Ki) in assay [2] came out at 0.0918 µM.
In the case of `Cc1ccc2c(c1O)C[C@@H](C1CCN(CCC(C)c3ccccc3)CC1)O[C@H]2CN` (stereo partly drawn) [Example 27, (1R,3S)-1-Aminomethyl-6-methyl-3-[1-(3-phenyl-butyl)-piperidin-4-yl]-isochroman-5-ol dihydrobromide], the EC50 in assay [1] turned out to be 0.28 µM.
On to `Cc1ccc2c(c1O)C[C@@H](C1CCN(Cc3ccncc3)CC1)O[C@H]2CN` [Example 54, (1R,3S)-1-Aminomethyl-6-methyl-3-(1-pyridin-4-ylmethyl-piperidin-4-yl)-isochroman-5-ol dihydrochloride], for which the concentration for a half-maximal effect (EC50) in assay [1] came out at 0.045 µM. For the same molecule, the inhibition constant Ki in assay [2] was 0.153 µM.
The matching figures for `Cc1ccc2c(c1O)C[C@@H](C1CCN(Cc3ccc(Cl)cc3)CC1)O[C@H]2CN` [Example 58, (1R,3S)-1-Aminomethyl-3-[1-(4-chloro-benzyl)-piperidin-4-yl]-6-methyl-isochroman-5-ol dihydrochloride]: 0.01 µM and 0.052 µM.
For `COc1ccc(CN2CCC([C@@H]3Cc4c(ccc(C)c4O)[C@H](CN)O3)CC2)cc1` [Example 61, (1R,3S)-1-Aminomethyl-3-[1-(4-methoxy-benzyl)-piperidin-4-yl]-6-methyl-isochroman-5-ol dihydrochloride], in that order: 0.047 µM and 0.0198 µM.
For `Cc1ccc2c(c1O)C[C@@H](C1CCN(Cc3ccc(O)cc3)CC1)O[C@H]2CN` [Example 62, (1R,3S)-1-Aminomethyl-3-[1-(4-hydroxy-benzyl)-piperidin-4-yl]-6-methyl-isochroman-5-ol dihydrochloride], in that order: 0.014 µM and 0.0461 µM.
Regarding `Cc1ccc2c(c1O)C[C@@H](C1CCN(Cc3ccc(F)c(F)c3)CC1)O[C@H]2CN` [Example 63, (1R,3S)-1-Aminomethyl-3-[1-(3,4-difluoro-benzyl)-piperidin-4-yl]-6-methyl-isochroman-5-ol dihydrochloride], the EC50 in assay [1] stood at 0.009 µM. Also, the inhibitory constant (Ki) in assay [2] stood at 0.0068 µM.
With `Cc1ccc(CN2CCC([C@@H]3Cc4c(ccc(C)c4O)[C@H](CN)O3)CC2)cc1` [Example 66, (1R,3S)-1-Aminomethyl-6-methyl-3-[1-(4-methyl-benzyl)-piperidin-4-yl]-isochroman-5-ol dihydrochloride], in assay [1], the EC50 is 0.006 µM. For the same molecule, the Ki in assay [2] is 0.0757 µM.
For `Cc1ccc2c(c1O)C[C@@H](C1CCN(Cc3ccsc3)CC1)O[C@H]2CN` [Example 67, (1R,3S)-1-Aminomethyl-6-methyl-3-(1-thiophen-3-ylmethyl-piperidin-4-yl)-isochroman-5-ol dihydrochloride], in that order: 0.009 µM and 0.0626 µM.
The matching figures for `Cc1ccc2c(c1O)C[C@@H](C1CCN(Cc3cccc(F)c3)CC1)O[C@H]2CN` [Example 69, (1R,3S)-1-Aminomethyl-3-[1-(3-fluoro-benzyl)-piperidin-4-yl]-6-methyl-isochroman-5-ol dihydrochloride]: 0.01 µM and 0.0325 µM.
As to `Cc1ccc2c(c1O)C[C@@H](C1CCN(Cc3ccc(C(F)(F)F)cc3F)CC1)O[C@H]2CN` [Example 70, (1R,3S)-1-Aminomethyl-3-[1-(2-fluoro-4-trifluoromethyl-benzyl)-piperidin-4-yl]-6-methyl-isochroman-5-ol dihydrochloride], the EC50 in assay [1] is 0.077 µM. The Ki in assay [2] was found to be 0.0194 µM.
For `Cc1ccc2c(c1O)C[C@@H](C1CCN(Cc3ccoc3)CC1)O[C@H]2CN` [Example 71, (1R,3S)-1-Aminomethyl-3-(1-furan-3-ylmethyl-piperidin-4-yl)-6-methyl-isochroman-5-ol hydrochloride], in that order: 0.42 µM and 0.0942 µM.
Regarding `Cc1ccc2c(c1O)C[C@@H](C1CCN(Cc3ccccc3)CC1)O[C@H]2CN` [Example 93, (1R,3S)-1-Aminomethyl-3-[1-(benzyl)-piperidin-4-yl]-6-methyl-isochroman-5-ol dihydrobromide], in assay [1], the EC50 is 0.045 µM.
As to `CNC[C@@H]1O[C@H](C2CCN(C)CC2)Cc2c1ccc(C)c2O` [Example 102, (1R,3S)-6-Methyl-1-methylaminomethyl-3-(1-methyl-piperidin-4-yl)-isochroman-5-ol dihydrobromide], the EC50 in assay [1] worked out at 1.5 µM. Also, the inhibitory constant (Ki) in assay [2] came out at 0.147 µM.
For `Cc1ccc2c(c1O)C[C@@H](C1CCN(CCCC(c3ccc(F)cc3)c3ccc(F)cc3)CC1)O[C@H]2CN` [Example 108, (1R,3S)-1-Aminomethyl-3-{1-[4,4-bis-(4-fluoro-phenyl)-butyl]-piperidin-4-yl}-6-methyl-isochroman-5-ol dihydrobromide], in that order: 0.036 µM and 0.11 µM.
As for `Cc1ccc2c(c1O)C[C@@H](C1CCN(CCCc3ccccc3)CC1)O[C@H]2CN` [Example 110, (1R,3S)-1-Aminomethyl-6-methyl-3-[1-(3-phenyl-propyl)-piperidin-4-yl]-isochroman-5-ol dihydrochloride], the EC50 in assay [1] came out at 0.006 µM.
Regarding `Cc1ccc2c(c1O)C[C@@H](C1CCN(Cc3ccc(C(F)(F)F)cc3)CC1)O[C@H]2CN(C)C` [Example 168, (1R,3S)-1-Dimethylaminomethyl-6-methyl-i-3-[1-(4-trifluoromethylbenzyl)piperidin-4-yl]-isochroman-5-ol], the concentration giving a half-maximal response (EC50) in assay [1] was 31 µM. In assay [2], the Ki was determined as 0.045 µM.
The matching figures for `CNC[C@@H]1O[C@H](C2CCN(Cc3ccc(C(F)(F)F)cc3)CC2)Cc2c1ccc(C)c2O` [Example 181, (1R,3S)-6-Methyl-1-methylaminomethyl-3-[1-(4-trifluoromethyl-benzyl)-piperidin-4-yl]-isochroman-5-ol hydrochloride]: 0.22 µM and 0.021 µM.
On to `CCNC[C@@H]1O[C@H](C2CCN(Cc3ccc(C(F)(F)F)cc3)CC2)Cc2c1ccc(C)c2O` [Example 182, (1R,3S)-1-Ethylaminomethyl-6-methyl-3-[1-(4-trifluoromethyl-benzyl)-piperidin-4-yl]-isochroman-5-ol], for which, in assay [1], the EC50 was found to be 1.3 µM. The Ki in assay [2] worked out at 0.255 µM.

(Values after patent publication US7919508B2, “3-piperidinylisochroman-5-ols as dopamine agonists” (Aventis Pharmaceuticals Inc., priority 2004, dated 2011).)
